Data set [1] in a line: Dog pharmacokinetic studies, deep intramuscular. The settings on record: dog IM, 48 mg/kg, Sesame oil + 1% Benzyl Alcohol. It is filed as in vivo, Beagle dogs. As to the method: The purpose of this study is to determine the pharmacokinetics of test compounds in plasma, following deep intramuscular administration to Beagle dogs (n=3, unless otherwise specified).
(§1) The dose formulation (concentration−400 mg base equivalents/ml in sesame oil+1% benzyl alcohol, unless otherwise specified) was administered via deep intramuscularly (unless otherwise specified). The injection vehicle was also dosed via deep intramuscular route (unless otherwise specified) on contralateral site of each animal at study initiation. The animals were sedated with Propofol at 6 mg/kg via IV administration. Following sedation hair was carefully removed from around the injection site and the area gently cleaned. Care will be taken to avoid irritating skin during shaving and cleaning the injection site. Then dogs will be dosed with deep IM administration. At least 2.5 cm depth from the surface into the central aspect of the quadriceps or biceps femoris muscle, by angling the needle toward the femur. If the needle hits the femur, simply draws back slightly and then inject. The dose volume will be determined by the animals' body weight collected on the morning of dosing day. For repeated administration, the injection sites may be rotated to minimize tissue injury.
Blood samples were collected from a peripheral vessel from restrained, non-sedated animals per sampling time point.
Approximately 0.8 mL blood will be collected at each time point.
(§2) Each collected blood sample was centrifuged for 4 minutes at 4° C. and 10000 rpm for plasma collection. Plasma was collected and transferred into a pre-labeled PP tube in dry ice at each time point and precipitated immediately using ACN at a ratio of 1:4 (plasma:ACN). Centrifuged again (10 minutes, 12000 rpm) and obtain the supernatant.
After terminal collection, all supernatant was stored at approximately −80° C. F until bioanalysis.
(§3) LC-MS/MS methods for the quantitative determination of test compound in biological matrix were developed. […] The sample analysis was performed concurrently with a set of calibration standards and two sets of QC samples using the LC-MS/MS method.
(§4) Plasma concentration versus time data was analyzed by non-compartmental approaches using the Phoenix WinNonlin 6.3 software program. Cmax, Tmax, T1/2, AUC(0-t), AUC(0-inf), MRT(0-t), MRT(0-inf) and graphs of plasma concentration versus time profile were prepared.

Data set [2] can be described thus: Rat pharmacokinetic studies, intramuscular. In kind it is in vivo, male Sprague Dawley Rats. The settings on record: for Mean conc Nalmefene: rat plasma, IM, 86 mg/ml at 17 mg/kg. As for the experimental part: The purpose of this study is to determine the pharmacokinetics of test compounds in plasma, following intramuscular administration to male Sprague Dawley Rats (n=3, unless otherwise specified).
The dose formulation of 400 mg base equivalents/ml in sesame oil+1% benzyl alcohol (unless otherwise specified) was administered by intramuscular injection. The dose volume was determined by the animals' body weight determined on the morning of dosing day.
as §2
After terminal collection, all supernatant was stored at approximately −80° C. until bioanalysis.
as §3, §4

Data set [3] can be described thus: Solubility determination in oil (cottonseed oil, sesame oil). The conditions noted are these: Sesame oil; heating temp. 60 °C, obs. temp. 25 °C. As for the experimental part: A known amount of test substance (˜40 mg) was weighed into the vial, 100 μL of oil was added and heated to 60° C. and then system was slurried to reach equilibrium. […] Extra oil was added into the vial once compound precipitated out and then the system was re-equilibrated at 1000 rpm at room temperature (25° C.). Final concentration was determined by HPLC method as described below in Table 6a and 6b.

A short description of data set [4]: Dog clinical observations after intramuscular dosing. In kind it is in vivo, Beagle dogs. As to the method:
Weight monitoring was done every week.
as §1

The nature of data set [5]: Plasma stability assay, rat plasma. In kind it is in vitro ADME. The settings on record: 37° C., 10 μM. As to the method:
Plasma stability determination of the test compounds in rat, dog, cynomolgus monkey and human plasma is performed using HPLC-MS. For rat, incubations are carried out in 96-well polypropylene plates in 5 aliquots of 70 μL each (one for each time point). […] Five time points are analyzed (0, 15, 120, 480 and 1440 min). For dog, monkey and human, test compounds (2 μM, final solvent concentration 1%) were also incubated at 37° C. and analyzed at five time points (0, 10, 30, 60 and 120 min). All incubations are performed in duplicates. The samples are analyzed by HPLC-MS. The percentage of parent compound remaining after incubation in plasma is determined.

Where [6] appears, read: rat IM, 17 mg/kg, Sesame oil + 1% Benzyl Alcohol.

The record followed here is US10525055B2, “Opioid receptor antagonist prodrugs” (Nirsum Laboratories, Inc., priority 2017, dated 2020).

The structures appear in SMILES notation.

Regarding `C=C1CC[C@@]2(O)C3Cc4ccc(OCOC(=O)OCCCCCCCC/C=C/CCCCCCCC)c5c4[C@@]2(CCN3CC2CC2)[C@H]1O5` [Compound 1, (((4aS,7aS,12bS)-3-(cyclopropylmethyl)-4a-hydroxy-7-methylene-2,3,4,4a,5,6,7,7a-octahydro-1H-4,12-methanobenzofuro[3,2-e]isoquinolin-9-yl)oxy)methyl ((E)-octadec-9-en-1-yl) carbonate], in data set [1], the “AUC0-inf (ng · h/mL) prodrug” value amounted to 1040 ng·h/mL and the “Half-life t1/2 (hour) prodrug” value worked out at 261 h.
For the compound `CCCCCCCC/C=C/CCCCCCCCOC(=O)OCOc1ccc2c3c1O[C@H]1C(=O)CC[C@@]4(O)C(C2)N(CC2CC2)CC[C@]314` [Compound 7, (((4aS,7aR,12bS)-3-(cyclopropylmethyl)-4a-hydroxy-7-oxo-2,3,4,4a,5,6,7,7a-octahydro-1H-4,12-methanobenzofuro[3,2-e]isoquinolin-9-yl)oxy)methyl ((E)-octadec-9-en-1-yl) carbonate], in data set [1], the “AUC0-inf (ng · h/mL) prodrug” value stood at 610 ng·h/mL.
In the case of `CCCCCCCCCCCCOC(=O)OCOc1ccc2c3c1O[C@H]1C(=O)CC[C@@]4(O)C(C2)N(CC2CC2)CC[C@]314` [Compound 29, (((4aS,7aR,12bS)-3-(cyclopropylmethyl)-4a-hydroxy-7-oxo-2,3,4,4a,5,6,7,7a-octahydro-1H-4,12-methanobenzofuro[3,2-e]isoquinolin-9-yl)oxy)methyl dodecyl carbonate], in data set [2] (rat IM, 165 mg/kg, Sesame oil + 1% Benzyl Alcohol), the “AUC0-inf (ng · h/mL) prodrug” value was 74.8 ng·h/mL. Moreover, the “Approximate Solubility (mg/mL) in Excipient: Sesame oil” value in data set [3] was greater than 416.5 mg/mL.
Consider `C=C1CC[C@@]2(O)C3Cc4ccc(OCOC(=O)OCCCCCCCCCC)c5c4[C@@]2(CCN3CC2CC2)[C@H]1O5` [Compound 35, (((4aS,7aS,12bS)-3-(cyclopropylmethyl)-4a-hydroxy-7-methylene-2,3,4,4a,5,6,7,7a-octahydro-1H-4,12-methanobenzofuro[3,2-e]isoquinolin-9-yl)oxy)methyl decyl carbonate], for which, in data set [1], the “Half-life t1/2 (hour) prodrug” value came out at 70 h. The “Clinical observations, R-TA” value is on record as “Red spots at groin” in data set [4] (dog D1501, 48 mg/kg, 24 hr) and “Red spots at groin” in data set [4] (dog D1501, 48 mg/kg, 48 hr). Further, the “BT (clinical observations, R-TA)” value was “at groin/BT: 39.1 °C” in data set [4] (dog D1501, 48 mg/kg, 72 hr); “at groin/BT: 39.0 °C” in data set [4] (dog D1501, 48 mg/kg, 96 hr); “at groin/BT: 39.1 °C” in data set [4] (dog D1501, 48 mg/kg, 120 hr); “groin/BT: 38.7 °C” in data set [4] (dog D1501, 48 mg/kg, 144 hr); “groin/BT: 38.2 °C” in data set [4] (dog D1501, 48 mg/kg, 192 hr); “groin/BT: 38.6 °C” in data set [4] (dog D1501, 48 mg/kg, 216 hr). Further, the “BT (clinical observations, R-TA)” value in data set [4] (dog D1501, 48 mg/kg, 240 hr) is “groin/BT: 38.2 °C”; in data set [4] (dog D1501, 48 mg/kg, 264 hr), “groin/BT: 38.0 °C”; in data set [4] (dog D1501, 48 mg/kg, 288 hr) it was “groin/BT: 38.4 °C”; in data set [4] (dog D1501, 48 mg/kg, […]) it was “groin/BT: 38.9 °C”; in data set [4] (dog D1502 (third dog column), 48 mg/kg, 72 hr), “leg/BT: 39.3 °C”; in data set [4] (dog D1502 (third dog column), 48 mg/kg, 96 hr) it was “leg/BT: 39.3 °C”. Also, the “BT (clinical observations, R-TA)” value in data set [4] (dog D1502 (third dog column), 48 mg/kg, 120 hr) is “BT: 39.4 °C”; in data set [4] (dog D1502 (third dog column), 48 mg/kg, 144 hr) it was “BT: 39.0 °C”; in data set [4] (dog D1502 (third dog column), 48 mg/kg, 192 hr), “at calf/BT: 39.2 °C”; in data set [4] (dog D1502 (third dog column), 48 mg/kg, 216 hr), “calf/BT: 39.2 °C”; in data set [4] (dog D1502 (third dog column), 48 mg/kg, 240 hr) it was “calf/BT: 38.9 °C”; in data set [4] (dog D1502 (third dog column), 48 mg/kg, 264 hr) it was 6 * 6 cm/BT: 38.7 °C. The “BT (clinical observations, R-TA)” value is 6 * 6 cm/BT: 38.7 °C in data set [4] (dog D1502 (third dog column), 48 mg/kg, 288 hr); “at calf/BT: 39.3 °C” in data set [4] (dog D1502 (third dog column), 48 mg/kg, […]); “red/BT: 39.6 °C” in data set [4] (dog D1502, 48 mg/kg, 72 hr); “red/BT: 38.9 °C” in data set [4] (dog D1502, 48 mg/kg, 96 hr); “red/BT: 39.6 °C” in data set [4] (dog D1502, 48 mg/kg, 120 hr); “redness/BT: 38.9 °C” in data set [4] (dog D1502, 48 mg/kg, 144 hr). Further, the “BT (clinical observations, R-TA)” value is “BT: 38.7 °C” in data set [4] (dog D1502, 48 mg/kg, 192 hr); “BT: 39.2 °C” in data set [4] (dog D1502, 48 mg/kg, 216 hr); “BT: 38.6 °C” in data set [4] (dog D1502, 48 mg/kg, 240 hr); “BT: 38.4 °C” in data set [4] (dog D1502, 48 mg/kg, 264 hr); “BT: 38.6 °C” in data set [4] (dog D1502, 48 mg/kg, 288 hr); “redness/BT: 39.9 °C” in data set [4] (dog D1502, 48 mg/kg, […]).
On to `C=C1CC[C@@]2(O)C3Cc4ccc(OC(=O)CCCCCCCCCCC)c5c4[C@@]2(CCN3CC2CC2)[C@H]1O5` [Compound 59, (4aS,7aS,12bS)-3-(cyclopropylmethyl)-4a-hydroxy-7-methylene-2,3,4,4a,5,6,7,7a-octahydro-1H-4,12-methanobenzofuro(3,2-c]isoquinolin-9-yl dodecanoate, reference compound], for which, in data set [2] (setting [6]), the “AUC0-inf (ng · h/mL) nalmefene” value was determined as 1026 ng·h/mL. For the same compound, the “AUC0-inf (ng · h/mL) prodrug” value in data set [2] (setting [6]) is 10.4 ng·h/mL. Moreover, the “Half-life t1/2 (hour) prodrug” value in data set [2] (setting [6]) came out at 15.2 h. In addition, the “Terminal Half-life t1/2 (hour) nalmefene” value in data set [2] (setting [6]) was 248 h. The “Mean conc Nalmefene” value in data set [2] (1.00 h) came out at 7.85 ng/mL; in data set [2] (2.00 h) it was 8.10 ng/mL; in data set [2] (4.00 h), 7.45 ng/mL; in data set [2] (8.00 h) it was 6.85 ng/mL; in data set [2] (24.0 h) it was 6.96 ng/mL; in data set [2] (48.0 h) it was 7.92 ng/mL. The “Mean conc Nalmefene” value in data set [2] (72.0 h) was determined as 5.77 ng/mL; in data set [2] (144 h) it was 1.59 ng/mL; in data set [2] (312 h) it was 0.403 ng/mL; in data set [2] (480 h), 0.235 ng/mL; in data set [2] (648 h) it was 0.145 ng/mL. The “% remaining at time point in minutes, 0 min” value in data set [5] (0 min) is 100%. In addition, in data set [5] (15 min), the “% remaining at time point in minutes, 15 min” value was found to be 5.9%. In addition, in data set [5] (120 min), the “% remaining at time point in minutes, 120 min” value was found to be 0.7%. In addition, the “% remaining at time point in minutes, 480 min” value in data set [5] (480 min) came out at 0.2%. Moreover, the “% remaining at time point in minutes, 1440 min” value in data set [5] (1440 min) was found to be 0%.
